The values that follow come from US5527821A, “Pharmacologically active alpha-[tertiary-aminomethyl]-benzenemethanol derivatives” (Pharmacia AB, priority 1992, dated 1996).

Where a name gives a salt, the structure may show the parent alone. Read-outs that look alike come from different tables or passages of the source.

The subject of series [1] is isolated rabbit portal vein. In words: Effects on the isolated rabbit portal vein (contraction, in vitro). The note with it: for EC50 / Emax: Oryctolagus cuniculus; for EC50: read-out: Portal vein, in vitro: EC50 value (effective concentration inducing a half maximum contraction); for Emax / Portal vein, in vitro: Max. contraction: cumulative addition (12 concentrations), reference noradrenaline 6×10^-5 M. The class given is cell-based. As for the experimental part: (§1) Female rabbits weighing 2.5-3.0 kg were sacrificed and exsanguinated. The urethra and portal vein were dissected out and suspended in organ baths containing oxygenated Krebs solution at 37° C. Two rings of urethra (4 mm broad) and two longitudinal strips of the portal vein were used. The basal tension was adjusted to about 10 mN after an equilibration time of 60 minutes. Isometric tension was recorded via a force transducer (Statham FT03) and registered on a Grass polygraph model 7.
(§2) Submaximum concentrations of noradrenaline (6×10^-5 M) were used to achieve reference contractions.
(§3) The test substances were added cumulatively (12 concentrations) until a maximum response was obtained.

The next series deals with isolated rabbit urethra. In words: Effects on the isolated rabbit urethra (contraction, in vitro). The class given is cell-based. The note with it: Krebs solution, 37° C.; for EC50: cumulative addition; for Emax / Urethra, in vitro: Max. contraction: cumulative addition (12 concentrations), reference noradrenaline 6×10^-5 M. As for the experimental part:
as §1, §2, §3

Series [2] concerns urethra (urethral pressure in anaesthetized rabbits). In words: Effects on urethral pressure in anaesthetized rabbits. It counts as in vivo, rabbit. The conditions noted are these: reference noradrenaline 0.025 μg/kg i.v. Here is the method: (§4) Rabbits, weighing 2.5-3 kg, were anaesthetized by pentobarbitone (initially 40 mg/kg i.v. and for maintenance anaesthesia 10 mg/kg, h). For recording of urethral pressure a catheter (Dog cath nr 6.) was inserted into the urethra and placed at the point of highest pressure. The basal urethral pressure was approximately 10 cm H2 O. The blood pressure was recorded via a catheter (PP50) inserted into a femoral artery. Substances were injected intravenously into a catheter in a femoral vein. The continuous intravenous infusion of pentobarbitone kept the depth of anesthesia at a constant level through the experiment. Three consecutive noradrenaline injections (0.025 μg/kg i.v.) were given initially to constitute reference responses. Repeated intravenous injections of different doses of the same test compound were given in a randomized manner. […] In other pharmacological experiments (not described here) it was also shown that the described compounds had no or minimal effect on other organs, such as for example the urinary bladder, central nervous system, intestine, vas deferens etc.

The test system of series [3] is blood pressure in anaesthetized rabbits. In words: Effects on blood pressure in anaesthetized rabbits. The class given is in vivo, rabbit. The conditions noted are these: i.v. injections of different doses, femoral artery catheter. Here is the method:
as §4

Where [4] appears, read: read-out: Portal vein, in vitro: Max. contraction, female rabbit portal vein longitudinal strips, Krebs solution, 37° C.
[5] abbreviates: Oryctolagus cuniculus, read-out: Urethra, in vitro: EC50-value (effective concentration inducing a half maximum contraction), female rabbit urethra rings.
The mark [6] stands for this setting: Oryctolagus cuniculus, read-out: Urethra, in vitro: Max. contraction, female rabbit urethra rings.
The mark [7] stands for this setting: female rabbit portal vein longitudinal strips, Krebs solution, 37° C.
Setting [8] is: read-out: Urethra, in vitro: EC50-value (effective concentration inducing a half maximum contraction), female rabbit urethra rings.
The mark [9] stands for this setting: anaesthetized rabbits, i.v. injections of different doses.
[10] abbreviates: female rabbit portal vein longitudinal strips, Krebs solution, 37° C., read-out: Portal vein, in vitro: Max. contraction.
Setting [11] is: female rabbit portal vein longitudinal strips, cumulative addition, Krebs solution, 37° C.
Where [12] appears, read: Oryctolagus cuniculus, female rabbit urethra rings, read-out: Urethra, in vitro: Max. contraction.
Setting [13] is: Oryctolagus cuniculus, female rabbit urethra rings, read-out: Urethra, in vitro: EC50-value (effective concentration inducing a half maximum contraction).
[14] abbreviates: Oryctolagus cuniculus, iv, anaesthetized rabbits, i.v. injections of different doses, read-out: Max. urethral pressure in vivo, in % of NA-max.
Setting [15] is: Oryctolagus cuniculus, iv, read-out: Max. urethral pressure in vivo, in % of NA-max, anaesthetized rabbits, i.v. injections of different doses.

As for `C=CCOc1c(OC)cccc1C(O)CN(C)C` (stereo not drawn) [Compound 15, α-[(Dimethylamino)methyl]-3-methoxy-2-(2-propenyloxy)-benzenemethanol, hydrogen oxalate], the EC50 in series [1] amounted to 90 µM; in the series on isolated rabbit urethra (setting [5]) it was 47 µM. Further, the Emax in series [1] (setting [4]) was determined as 11%; in the series on isolated rabbit urethra (setting [6]), 104%.

In the case of `Cc1cccc(C(O)CN(C)C)c1OC(C)C` (stereo not drawn) [Compound 1, α-[(Dimethylamino)methyl]-2-(1-methylethoxy)-3-methyl-benzenemethanol, hydrochloride], the EC50 (in series [1]; with isolated rabbit urethra (setting [5])) was 24 µM each time. Further, the Emax in series [1] (setting [4]) turned out to be 47%; in the series on isolated rabbit urethra (setting [6]), 85%.

Take `CCN(CC)CC(O)c1cccc(Cl)c1OC(C)C` (stereo not drawn) [Compound 10, 3-Chloro-α-[(diethylamino)methyl]-2-(1-methylethoxy)-benzenemethanol, hydrogen oxalate]: the EC50 in series [1] worked out at 11 µM; with isolated rabbit urethra (setting [5]) it was 12 µM. Moreover, the Emax in series [1] (setting [4]) amounted to 28%; in the series with isolated rabbit urethra (setting [6]), 81%.

In the case of `COc1cccc(C(O)CN(C)C)c1OC(C)C` (single isomer, unassigned) [Compound 6:3, (+)-α-[(dimethylamino)methyl]-3-methoxy-2-(1-methylethoxy)-benzenemethanol], the EC50 in series [1] turned out to be 120 µM; in the series with isolated rabbit urethra (setting [8]) it was 6.5 µM. In series [1] (setting [7]), the “Portal vein, in vitro: Max. contraction” value is on record as 34 % of NA-max. The Emax in the series on isolated rabbit urethra (setting [6]) was determined as 106%. The “Max. urethral pressure in vivo, in % of NA-max” value in series [2] (setting [9]) is recorded as 288 % of NA-max. In addition, the “Blood pressure; max change, in %” value in series [3] is recorded as 14%.

For `CC=COc1c(OC)cccc1C(O)CN1CCCC1.O=C(O)C(=O)O` (stereo not drawn) [Compound 8, 3-Methoxy-2-(1-propenyloxy)-α-pyrrolidinomethyl-benzenemethanol, hydrogen oxalate], the “Portal vein, in vitro: Max. contraction” value in series [1] (setting [7]) is on record as 0 % of NA-max. For the same compound, the “Urethra, in vitro: Max. contraction” value in the series on isolated rabbit urethra (female rabbit urethra rings) was 52 % of NA-max. Also, the EC50 in the series with isolated rabbit urethra (female rabbit urethra rings, read-out: Urethra, in vitro: EC50-value (effective concentration inducing a half maximum contraction)) came out at 190 µM.

As for `COc1cccc(C(O)CN(C)C)c1SC(C)C` (stereo not drawn) [Compound 14, α-[(Dimethylamino)methyl]-3-methoxy-2-(1-methylethylthio)-benzenemethanol, hydrochloride], the figures for the Emax (in series [1] (setting [4]); in the series with isolated rabbit urethra (setting [6])) were 5% and 67%, respectively. For the same compound, the EC50 with isolated rabbit urethra (setting [5]) was 11 µM.

With `NC[C@H](O)c1ccc(O)c(O)c1` [Noradrenaline, noradrenaline, reference compound], the Emax (in series [1] (setting [10]); in the series with isolated rabbit urethra (setting [12])) was 100% each time. In addition, the EC50 in series [1] (setting [11]) came out at 5.3 µM; in the series with isolated rabbit urethra (setting [13]) it was 16 µM. Besides, the Emax at 2.5e-05 mg/kg in series [2] (setting [14]) worked out at 100%.

`CC(C)Oc1c(Cl)cccc1C(O)CN(C)C` (single isomer, unassigned; (+)) [Compound 6:2, (+)-3-chloro-α-[(dimethylamino)methyl]-2-(1-methylethoxy)-benzenemethanol]: the EC50 in series [1] was found to be 17 µM; in the series on isolated rabbit urethra (setting [8]), 4.5 µM. The “Portal vein, in vitro: Max. contraction” value in series [1] (setting [7]) is on record as 15 % of NA-max. Besides, the “Urethra, in vitro: Max. contraction” value in the series with isolated rabbit urethra (female rabbit urethra rings) is recorded as 107 % of NA-max.

Take `COc1cccc(C(O)CN2CCCC2)c1OC(C)C` (stereo not drawn) [Compound 5, 3-Methoxy-2-(1-methylethoxy)-α-pyrrolidinomethyl-benzenemethanol, hydrochloride]: the Emax in series [1] (setting [10]) was found to be 6%; with isolated rabbit urethra (setting [12]) it was 68%. For the same compound, in the series on isolated rabbit urethra (setting [13]), the EC50 came out at 110 µM.

Consider `CCN(C)CC(O)c1cccc(Cl)c1OC(C)C.Cl` (stereo not drawn) [Compound 11, 3-Chloro-α-[(N-ethyl-N-methylamino)methyl]-2-(1-methylethoxy)-benzenemethanol, hydrochloride], for which the EC50 was 4.5 µM in series [1] and 5.3 µM in the series with isolated rabbit urethra (setting [5]). Besides, the figures for the Emax (in series [1] (setting [4]); in the series on isolated rabbit urethra (setting [6]); in series [2] (setting [15])) were 54%, 100% and 210%, respectively. Besides, the “Blood pressure; max change, in %” value in series [3] is 34%.

Turning to `CC(N)C(O)c1ccccc1` (stereo not drawn) [PPA, phenylpropanolamine, reference compound], the EC50 in series [1] worked out at 70 µM; in the series with isolated rabbit urethra (setting [5]), 200 µM. Further, the Emax in series [1] (setting [4]) was 67%; with isolated rabbit urethra (setting [6]), 60%; in series [2] (setting [15]) it was 99%. Besides, the “Blood pressure; max change, in %” value in series [3] turned out to be 72%.

For the compound `COc1cccc(C(O)CN(C)C)c1OC(C)C` (stereo not drawn) [Compound 4, α-[(Dimethylamino)methyl]-3-methoxy-2-(1-methylethoxy)-benzenemethanol, hydrogen oxalate], the EC50 was determined as 87 µM in series [1] and 5.7 µM with isolated rabbit urethra (setting [5]). Besides, the results for the Emax (in series [1] (setting [4]); in the series on isolated rabbit urethra (setting [6]); in series [2] (setting [15])) were 35%, 95% and 211%, respectively. The “Blood pressure; max change, in %” value in series [3] is 10%.

On to `CC(C)Oc1c(C(O)CN(C)C)cccc1[N+](=O)[O-]` (stereo not drawn) [Compound 12, α-[(Dimethylamino)methyl]-2-(1-methylethoxy)-3-nitro-benzenemethanol, hydrochloride], for which the EC50 in series [1] worked out at 17 µM; in the series on isolated rabbit urethra (setting [5]), 11 µM. Besides, the Emax was found to be 18% in series [1] (setting [4]) and 80% in the series with isolated rabbit urethra (setting [6]).

As to `CC(C)Sc1c(Cl)cccc1C(O)CN(C)C` (stereo not drawn) [Compound 13, 3-Chloro-α-[(dimethylamino)methyl]-2-(1-methylethylthio)-benzenemethanol, hydrochloride], the Emax in series [1] (setting [4]) came to 4%; with isolated rabbit urethra (setting [6]) it was 45%. The EC50 with isolated rabbit urethra (setting [5]) turned out to be 77 µM.

Take `CC(C)Oc1c(Cl)cccc1C(O)CN1CCCC1` (stereo not drawn) [Compound 7, 3-Chloro-2-(1-methylethoxy)-α-pyrrolidinomethyl-benzenemethanol, hydrogen oxalate]: the Emax in series [1] (setting [10]) turned out to be 14%; in the series with isolated rabbit urethra (setting [12]) it was 73%; in series [2] (setting [14]), 189%. Further, the EC50 in series [1] (setting [11]) turned out to be 41 µM; in the series with isolated rabbit urethra (setting [13]), 12 µM. In addition, the “Blood pressure; max change, in %” value in series [3] is on record as -3%.

Take `COc1cccc(C(O)CN(C)C)c1OC(C)C` (single isomer, unassigned) [Compound 6:4, (-)-α-[(dimethylamino)methyl]-3-methoxy-2-(1-methylethoxy)-benzenemethanol]: the “Portal vein, in vitro: Max. contraction” value in series [1] (setting [7]) is 8 % of NA-max. For the same compound, the “Urethra, in vitro: Max. contraction” value in the series with isolated rabbit urethra (female rabbit urethra rings) is reported as 88 % of NA-max. Besides, the EC50 in the series on isolated rabbit urethra (setting [8]) turned out to be 61 µM. In addition, the “Max. urethral pressure in vivo, in % of NA-max” value in series [2] (setting [9]) is given as 150 % of NA-max. The “Blood pressure; max change, in %” value in series [3] is 11%.

As for `CC(C)Oc1c(Cl)cccc1C(O)CN(C)C` (single isomer, unassigned; (-)) [Compound 6:1], in series [1] (setting [4]), the Emax came out at 9%. Besides, in the series on isolated rabbit urethra (female rabbit urethra rings), the “Urethra, in vitro: Max. contraction” value is 69 % of NA-max. For the same compound, the EC50 in the series with isolated rabbit urethra (setting [8]) was 21 µM.

With `CCN(CC)CC(O)c1cccc(OC)c1OC(C)C` (stereo not drawn) [Compound 3, α-[(Diethylamino)methyl]-3-methoxy-2-(1-methylethoxy)-benzenemethanol, hydrogen oxalate], the EC50 in series [1] was found to be 130 µM; with isolated rabbit urethra (setting [5]) it was 6.6 µM. Besides, the Emax in series [1] (setting [4]) is 11%; with isolated rabbit urethra (setting [6]), 105%; in series [2] (setting [15]), 131%. Moreover, the “Blood pressure; max change, in %” value in series [3] is on record as -2%.

Consider `CCOc1c(Cl)cccc1C(O)CN(C)C.Cl` (stereo not drawn) [Compound 2, 3-Chloro-α-[(dimethylamino)methyl]-2-ethoxy-benzenemethanol, hydrochloride], for which the results for the EC50 (in series [1]; with isolated rabbit urethra (setting [5])) were 6.7 µM and 18 µM, respectively. For the same compound, the Emax in series [1] (setting [4]) stood at 22%; with isolated rabbit urethra (setting [6]), 105%; in series [2] (setting [15]), 123%. For the same compound, in series [3], the “Blood pressure; max change, in %” value is 9%.
